Source: patent US20110124719A1, “COMPOSITION FOR PROMOTING PRODUCTION OF HYALURONIC ACID CONTAINING KAEMPFEROL AND QUERCETIN” (Amorepacific Corporation, priority 2004, published 2011)

Assays:
Format in all cases: cell-based, human
[1] = tested on: hyaluronan synthase 2 (HAS2); assay: Quantitative reverse transcription PCR of HAS2 mRNA in HaCaT cells; conditions: treated 24 hours, expressed in treatment groups as well as the control group
Text: In order to examine an effect of increasing an expression of a HAS gene by kaempferol and quercetin in HaCaT which is a skin cell line of human epidermis, HaCaT cells were respectively treated with kaempferol and quercetin in several concentrations, then the HAS gene was subject to quantitative reverse transcription PCR so as to examine an expression of the HAS gene in a level of mRNA and thus changes of the HAS genes by kaempferol and quercetin were examined as follows. Human keratinocyte cell line, HaCaT cell, which was spontaneously immortalized, was used and obtained from Dr. N. E. Fusenig (Deutsches Krebsforschungszentrum (DKFZ), Heidelberg, Germany). […] A concentration of RNA was measured with a spectrophotometry method and a quality of RNA was checked with an agarose gel electrophoresis. It was examined through a quantitative reverse transcription PCR kaempferol and quercetin's influences on mRNA synthesis of hyaluronan synthase 1 (NAS1), hyaluronan synthase 2 (HAS2) and hyaluronan synthase 3 (HAS3), which are isoforms of hyaluronic acid synthase, as follows. Firstly, a RNA prepared and quantified in the above experimental example 1-2 was subject to a reverse transcription and then it was performed a quantitative PCR under the presence of primers specific for HAS1, HAS2 and HAS3 which are isoforms of hyaluronic acid synthase. […]

[2] = tested on: HaCaT cells; assay: HA-ELISA of hyaluronic acid discharged into culture medium of HaCaT cells; conditions: 24 hours
Method: Firstly, the cells were cultured in a Dulbecco's modified Eagle's media (DMEM) containing 10% fetal bovine serum (HyClone), sodium bicarbonate 3.6 g/l and antibody (streptomycin 100 μg and penicillin 100 IU/l) (Life Technologies, Inc.) under proper culture conditions (37° C., 5% CO2, 95% air). The medium was replaced every three days and the cells were secondary-cultured in a division ratio of 1:5 as soon as the density thereof reached the highest. 1×10^5 cells per 75 cm^2 of a tissue culture flask were aliquot 72 hours before the cell were treated with kaempferol or quercetin, and then cultured in a medium containing 10% fetal bovine serum for 48 hours. Then, the cells were cultured in a serum-free medium for 24 hours, treated with kaempferol and quercetin in concentrations of […], 1 μM and 10 μM, respectively and then cultured for 24 hours. A control group was diluted in a ratio of 1:1,000 and cultured in a medium supplemented with vehicle (dimethylsulfoxide, DMSO).
In order to examine that a production of hyaluronic acid was actually promoted by kaempferol and quercetin, a culture medium of HaCaT cell, which is a skin cell line of human epidermis was treated with kaempferol and quercetin, in several concentrations. After that, an amount of hyaluronic acid that synthesis of hyaluronic acid is promoted and then the acid is discharged into the medium was quantified using HA-ELISA Kit.
To perform the ELISA, it was purchased a Hyaluronan Enzyme-Linked ImmunoSorbent Assay Kit (HA-ELISA, Product No.: K-1200) available from Echelon company. The medium recovered through the above cell cultivation was subject to the HA-ELISA Kit according to manufacturer's instructions, thereby quantifying the synthesis amount of hyaluronic acid that was synthesized in HaCaT cell by kaempferol and quercetin and then discharged into the medium. The control group was diluted in a ratio of 1:1,000 and then cultured in a medium supplemented with vehicle (dimethylsulfoxide, DMSO).
(§1) A significance was considered, based on p=0.05 and data was shown with mean±standard error.

[3] = tested on: hyaluronan synthase 3 (HAS3); assay: Quantitative reverse transcription PCR of HAS3 mRNA in HaCaT cells; conditions: 24 hours
Text: In order to examine an effect of increasing an expression of a HAS gene by kaempferol and quercetin in HaCaT which is a skin cell line of human epidermis, HaCaT cells were respectively treated with kaempferol and quercetin in several concentrations, then the HAS gene was subject to quantitative reverse transcription PCR so as to examine an expression of the HAS gene in a level of mRNA and thus changes of the HAS genes by kaempferol and quercetin were examined as follows. Human keratinocyte cell line, HaCaT cell, which was spontaneously immortalized, was used and obtained from Dr. N. E. Fusenig (Deutsches Krebsforschungszentrum (DKFZ), Heidelberg, Germany). Firstly, the cells were cultured in a Dulbecco's modified Eagle's media (DMEM) containing 10% fetal bovine serum (HyClone), sodium bicarbonate 3.6 g/l and antibody (streptomycin 100 μg and penicillin 100 IU/l) (Life Technologies, Inc.) under proper culture conditions (37° C., 5% CO2, 95% air). […] A control group was diluted in a ratio of 1:1,000 and cultured in a medium supplemented with vehicle (dimethylsulfoxide, DMSO). It was not observed any effects of DMSO influencing on growth and differentiation in the control group culture. The HaCaT cells cultured in the experimental example 1-1 were cleaned two times with a phosphate-buffered saline (Life Technologies, Inc.) and RNAs of all cells were separated using a trizol reagent (GibcoBRL Life Technologies, Grand Island, N.Y.) according to manufacturer's instructions. A concentration of RNA was measured with a spectrophotometry method and a quality of RNA was checked with an agarose gel electrophoresis. It was examined through a quantitative reverse transcription PCR kaempferol and quercetin's influences on mRNA synthesis of hyaluronan synthase 1 (NAS1), hyaluronan synthase 2 (HAS2) and hyaluronan synthase 3 (HAS3), which are isoforms of hyaluronic acid synthase, as follows. Firstly, a RNA prepared and quantified in the above experimental example 1-2 was subject to a reverse transcription and then it was performed a quantitative PCR under the presence of primers specific for HAS1, HAS2 and HAS3 which are isoforms of hyaluronic acid synthase. […]

[4] = tested on: HaCaT cells; assay: MTT assay of cytotoxicity in HaCaT cells; conditions: 24 hours
Method: In order to examine cytotoxicity of kaempferol and quercetin in HaCaT, which is a skin cell line of human epidermis, according to the concentrations thereof, HaCaT was treated with kaempferol and quercetin in several concentrations and then degrees of cytotoxicity were quantified through a MTT assay.
HaCaT of human keratinocyte cell line, which was spontaneously immortalized, was used and obtained from Dr. N. E. Fusenig (Deutsches Krebsforschungszentrum (DKFZ), Heidelberg, Germany). The cells were cultured in a Dulbecco's modified Eagle's media (DMEM) containing 10% fetal bovine serum (HyClone), sodium bicarbonate 3.6 g/l and antibody (streptomycin 100 μg and penicillin 100 IU/l) (Life Technologies, Inc.) under proper culture conditions (37° C., 5% CO2, 95% air). The medium was replaced every three days and the cells were secondary-cultured in a division ratio of 1:5 as soon as the density thereof reached the highest. 1×10^4 cells per well of a tissue culture flask 96 well plate were aliquot 72 hours before the cells were treated with kaempferol or quercetin, and then cultured in a medium containing 10% fetal bovine serum for 48 hours. Then, the cells were cultured for 24 hours in a serum-free medium, treated with kaempferol and quercetin in concentrations of 0.1 μM, 1 μM and 10 μM, respectively and then cultured for 24 hours. A control group was diluted in a ratio of 1:1,000 and cultured in a medium supplemented with vehicle (dimethylsulfoxide, DMSO).
as §1

SMILES	expression of HAS2 hyaluronic acid synthase gene (mRNA) [1]	increase of hyaluronic acid synthesis compared to the control group ([2]; 1 μM)	increase of hyaluronic acid synthesis compared to the control group ([2]; 10 μM)	HAS3 mRNA expression compared to the control group ([3]; 1 μM)	HAS3 mRNA expression compared to the control group ([3]; 10 μM)	cytotoxicity compared to the control group (MTT) ([4]; 0.1 μM)	cytotoxicity compared to the control group (MTT) ([4]; 1 μM)	cytotoxicity compared to the control group (MTT) ([4]; 10 μM)
O=c1c(O)c(-c2ccc(O)c(O)c2)oc2cc(O)cc(O)c12 [quercetin]	expressed	11%	24%	increased	increased	did not exhibit cytotoxicity	did not exhibit cytotoxicity	did not exhibit cytotoxicity
O=c1c(O)c(-c2ccc(O)cc2)oc2cc(O)cc(O)c12 [kaempferol, Kaempferol]	expressed	7%	8%	increased	increased	did not exhibit cytotoxicity	did not exhibit cytotoxicity	did not exhibit cytotoxicity
